In US20100204138A1, “USE OF TRP6-T[…] D-LEU6-[…] […] AGENTS” (priority 2007, published 2010):

How the values were obtained:
[1] = tested on: Ovalbumin-restimulated spleen cells of Balb/c mice; experiment: Th1/Th2 cytokine profiling assay; assay type: cell-based, mouse; conditions: 10 micrograms per ml; murine spleen cells; Ovalbumin restimulation, 72 hours
HCMV strain AD169 = experiment: HCMV plaque formation assay in MRC-5 cells; assay type: cell-based; conditions: 10 micrograms per ml, 7-10 days
[2] = tested on: hepatitis B virus (HBV) ayw strain; experiment: HBV experimental assay in HepG2-2.2.15 cells (TaqMan PCR of secreted HBV DNA); assay type: cell-based; conditions: 10 micrograms per ml, six days
[3] = tested on: Primary Human endothelial cells (HUVEC); experiment: Endothelial cell migration assay; assay type: cell-based; conditions: 10 micrograms per ml, 22 hours
Procedure: Thereafter, designated concentration of testing peptides—10 micrograms per ml—was added in duplicate wells.

HUVEC = experiment: Endothelial tube formation assay; assay type: cell-based, human; conditions: 10 micrograms per ml, 20 hours
Excerpt: Positive control was vehicle only.

A549 cells = experiment: Apoptosis prevention assay (C2 ceramide, Annexin-5); assay type: cell-based, human; conditions: 10 micrograms per ml, 30 min pretreatment
Streptococcus pneumoniae = Streptococcus pneumoniae growth assay; assay type: cell-based; conditions: 10 micrograms per ml; 5×10^5 CFU/mL

| Substance | change of the production of IL-5 [1] | production of IFN-γ, suppressed by [1] [%] | production of IL-2, induced by [1] [%] | production of IL-4, induced/increased by [1] [%] | production of TNF-alpha, induced by [1] | inhibition of HCMV plaque formation as compared to the virus control (HCMV strain AD169) | inhibition of HBV replication as compared to the virus control infection [2] [%] | inhibition of the migration of human endothelial cells [3] [%] | inhibition of the tube formation of human endothelial cells (HUVEC) [%] | reduction of the ceramide-induced apoptosis on human lung cells (A549 cells) | inhibition of the growth of Streptococcus pneumoniae (Streptococcus pneumoniae) [%] | production of IFN-γ, induced by [1] [%] |
| --- | --- | --- | --- | --- | --- | --- | --- | --- | --- | --- | --- | --- |
| Pyr-His-Trp-Ser-Tyr-D-His(Bzl)-D-Leu-Arg-Pro-NHEt [Peptide 2] | did not significantly change | 30.8 | 55.8 | 135.7 | did not significantly change | did not inhibit | 61.6 | 8 | 4 | did not reduce | 100 | – |
| Pyr-His-Trp-Ser-Tyr-Trp-Leu-Arg-Pro-Gly-NH2 (HWSYWLRPG; N-terminal pyroglutamate; C-terminal amide; printed: His-Trp-Ser-Tyr-Trp-Leu-Arg-Pro-Gly-) [Peptide 1, LHRH family peptide, commercially available] | did not significantly change | – | 47.1 | 70.6 | 45.1% | did not inhibit | 23 | 3 | 15 | 22.65% | 100 | 40.2 |
